Where “and” joins values, the source holds several entries; their conditions need not be identical. Identical values can stand only once. Like-named read-outs stand apart in the source and are kept apart here. Marks after values point to notes of the source that are not given here.
What was measured:
5-LOX = target: T1, 5-LOX (Glycine max, UniProt P08170); assay: Lipoxygenase (5-LOX) inhibitory activity; assay type: biochemical; conditions: for inhibition at 62.5 µg/mL: read-out: % inhibition 5-LOX (mean ± SEM), 62.5 µg/ml; for inhibition at 250 µg/mL: read-out: % inhibition 5-LOX (mean ± SEM), 250 µg/ml; for inhibition at 500 µg/mL: read-out: % inhibition 5-LOX (mean ± SEM), 500 µg/ml; for inhibition at 1000 µg/mL: read-out: % inhibition 5-LOX (mean ± SEM), 1000 µg/ml
T1 sequence (P08170 1-839): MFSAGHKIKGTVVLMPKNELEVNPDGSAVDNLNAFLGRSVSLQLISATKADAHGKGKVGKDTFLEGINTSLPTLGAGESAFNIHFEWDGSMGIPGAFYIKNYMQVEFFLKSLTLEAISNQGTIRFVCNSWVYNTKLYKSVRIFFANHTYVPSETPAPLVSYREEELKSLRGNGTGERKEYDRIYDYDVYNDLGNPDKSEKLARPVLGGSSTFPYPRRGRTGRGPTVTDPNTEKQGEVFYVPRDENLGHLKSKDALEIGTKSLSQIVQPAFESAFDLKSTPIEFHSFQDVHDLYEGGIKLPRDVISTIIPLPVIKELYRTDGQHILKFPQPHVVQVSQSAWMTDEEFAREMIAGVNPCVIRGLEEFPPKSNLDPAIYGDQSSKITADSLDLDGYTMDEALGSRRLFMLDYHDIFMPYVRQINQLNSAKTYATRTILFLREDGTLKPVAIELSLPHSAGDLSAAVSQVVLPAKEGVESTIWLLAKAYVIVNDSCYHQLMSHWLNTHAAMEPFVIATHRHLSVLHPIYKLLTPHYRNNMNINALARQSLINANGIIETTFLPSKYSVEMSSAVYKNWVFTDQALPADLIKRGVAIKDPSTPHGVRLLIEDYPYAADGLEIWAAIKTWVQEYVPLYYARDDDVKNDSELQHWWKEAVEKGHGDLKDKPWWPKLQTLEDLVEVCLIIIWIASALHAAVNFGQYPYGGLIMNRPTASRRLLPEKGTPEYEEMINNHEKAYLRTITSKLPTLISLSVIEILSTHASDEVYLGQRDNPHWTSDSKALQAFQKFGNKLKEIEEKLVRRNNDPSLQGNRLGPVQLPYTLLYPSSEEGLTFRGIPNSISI
Method: The enzyme solution with a concentration of 10,000 U/ml was prepared. […] A solution (80 mM) of linoleic acid (substrate) was made. Likewise, a 50 mM phosphate buffer solution with a pH of 6.3 was prepared. The substrate, enzyme, and buffer were combined in equal proportions, each in a 2 ml volume. […] The inhibition percentage was determined by comparing the absorbance of the test samples with that of the positive control.

Swiss albino mice [1] = assay: Formalin test with opioid receptor involvement; assay type: in vivo; conditions: for formalin induced pain, licking time, individual values: single animals
Method: An anti-nociceptive assessment was performed on Swiss albino mice of both sexes, sourced from the National Institute of Health, Islamabad, Pakistan. […] Mice of either sex were divided into different groups, with five mice in each group. […]
The analgesic activity of I. rugosus was assessed through a formalin-induced licking test. The test samples were administered orally at specified doses.

COX-2 = target: T2, COX-2 (Homo sapiens, UniProt P35354); assay: Cyclooxygenase-2 inhibitory activity; assay type: biochemical; conditions: for inhibition at 62.5 µg/mL / inhibition at 250 µg/mL / inhibition at 500 µg/mL / inhibition at 1000 µg/mL: read-out: % inhibition, COX-2 (mean ± SEM); for Percent Inhibition (COX-2), single replicates: replicates 1-3; for IC50: COX-2
T2 sequence (P35354 18-604): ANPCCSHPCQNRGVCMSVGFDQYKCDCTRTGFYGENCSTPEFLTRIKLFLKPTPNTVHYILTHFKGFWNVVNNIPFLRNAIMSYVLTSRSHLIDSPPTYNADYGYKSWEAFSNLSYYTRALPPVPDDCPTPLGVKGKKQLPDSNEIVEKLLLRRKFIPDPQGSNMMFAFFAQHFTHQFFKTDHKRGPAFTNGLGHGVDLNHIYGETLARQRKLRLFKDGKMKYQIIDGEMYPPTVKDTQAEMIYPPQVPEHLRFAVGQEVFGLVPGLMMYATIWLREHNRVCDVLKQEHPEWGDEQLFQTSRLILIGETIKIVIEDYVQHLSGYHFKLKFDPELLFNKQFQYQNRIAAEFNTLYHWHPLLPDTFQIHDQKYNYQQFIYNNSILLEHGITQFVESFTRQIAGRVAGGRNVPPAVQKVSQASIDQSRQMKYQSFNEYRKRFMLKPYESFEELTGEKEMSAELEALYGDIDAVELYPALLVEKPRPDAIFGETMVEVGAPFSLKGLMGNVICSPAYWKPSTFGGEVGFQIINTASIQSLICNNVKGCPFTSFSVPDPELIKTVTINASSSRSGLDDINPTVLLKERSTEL
Method: An enzyme solution with a concentration of 300 U/ml was prepared and activated using ice for 5 min with a 50 µL cofactor solution containing glutathione (0.9 mM), TMPD (N,N,N,N_tetramethyl-p-phenylenediaminedihydrochloride) (0.24 mM), and hematin (1 mM) in Tris buffer (0.1 M) with pH 8. The enzyme solution (60 µL) and test samples (20 µL) with various concentrations were incubated at room temperature for 5 minutes. Celecoxib was used as a positive control in the current assay. The absorbance of the samples was measured at 570 nm after the samples had been incubated for 5 min. Arachidonic acid (30 mM, 20 µL) was added to initiate the reaction. The percent inhibition was calculated from the absorbance value per unit time.

Swiss albino mice [2] = assay: Hot plate test, involvement of adrenergic receptors; assay type: in vivo; conditions: single animals
Method: The analgesic effects of the isolated compounds were measured using the hot plate method at a monitored temperature of 55 ± 0.2°C. The Swiss albino mice were positioned on the heated surface of the hot plate, and the period from placement to the onset of licking their hind paws or starting jump movements was noted as the response latency (thermal reactions). The test compounds were injected intraperitoneally. […] The animal models were checked for thermal reactions at various time intervals after sample administration.
The outcomes of the positive control and tested compounds were compared in animals pretreated with yohimbine. […] Additionally, clonidine at a dose of 3 μg/kg was intravenously administered. The animals were then subjected to the hot plate method, as reported before.

[3] = first phase, compounds 50 mg/kg, Mor 5 mg/kg, Nal 1 mg/kg
[4] = second phase, compounds 50 mg/kg, Mor 5 mg/kg, Nal 1 mg/kg

Structure (SMILES) | inhibition at 62.5 µg/mL (5-LOX) [%] | inhibition at 250 µg/mL (5-LOX) [%] | inhibition at 500 µg/mL (5-LOX) [%] | inhibition at 1000 µg/mL (5-LOX) [%] | Total time spent in licking 0–5 min (Swiss albino mice [1]; [3]) [s] | Total time spent in licking 15–30 min (Swiss albino mice [1]; [4]) [s] | inhibition at 62.5 µg/mL (COX-2; 62.5 µg/ml) [%] | inhibition at 250 µg/mL (COX-2; 250 µg/ml) [%] | inhibition at 500 µg/mL (COX-2; 500 µg/ml) [%] | inhibition at 1000 µg/mL (COX-2; 1000 µg/ml) [%] | Hot plate analysis (adrenergic), individual values (Swiss albino mice [2]; 30 Minutes) | Hot plate analysis (adrenergic), individual values (Swiss albino mice [2]; 45 Minutes) | Hot plate analysis (adrenergic), individual values (Swiss albino mice [2]; 15 minutes) | Hot plate analysis (adrenergic), individual values (Swiss albino mice [2]; 60 minutes) | Hot plate analysis (adrenergic), individual values (Swiss albino mice [2]; 90 minutes) | also measured
O=C(CCc1ccc(O)cc1)c1c(O)cc(O)cc1O [Compound 2, 2-4-4-6-tetrahydroxy-dihydrochalcone] | 21.1 ± 0.9 | 31.1 ± 0.2 | 36.7 ± 0.67 | 41.43 ± 0.38 | 51.55 ± 0.99 | 67.83 ± 0.57 | 31.9 ± 0.92 | 41.1 ± 0.24 | 45.1 ± 0.22 | 53 ± 0.79 | 3.19 and 3.88 and 3.2 | 4.32 and 3.32 and 3.1 | 2.32 and 1.9 and 3.49 | 3.2 and 2.9 and 4.02 | 3.1 and 2.75 and 3.61 | formalin induced pain, licking time, individual values (Swiss albino mice [1]; 0-5 minutes, listed as Comp 2): 51.46 and 50.12 and 53.09; formalin induced pain, licking time, individual values (Swiss albino mice [1]; 15-30 minutes, listed as Comp 2): 66.34 and 68.12 and 69.02; Total time spent in licking 0–5 min (Swiss albino mice [1]; first phase, compounds 50 mg/kg, Mor 5 mg/kg, Nal 1 mg/kg, listed as Comp 2): 51.5567 s; Total time spent in licking 15–30 min (Swiss albino mice [1]; second phase, compounds 50 mg/kg, Mor 5 mg/kg, Nal 1 mg/kg, listed as Comp 2): 67.8267 s; % inhibition, COX-2 (mean ± SEM) (COX-2; 62.5 µg/ml, listed as Comp 2): 31.8267%; % inhibition, COX-2 (mean ± SEM) (COX-2; 250 µg/ml, listed as Comp 2): 41.1767%; % inhibition, COX-2 (mean ± SEM) (COX-2; 500 µg/ml, listed as Comp 2): 45.1433%; % inhibition, COX-2 (mean ± SEM) (COX-2; 1000 µg/ml, listed as Comp 2): 52.9867%; Percent Inhibition (COX-2), single replicates (COX-2; 62.5, listed as Comp 2): 31.46% and 31.74% and 32.28%; Percent Inhibition (COX-2), single replicates (COX-2; 125, listed as Comp 2): 37.07% and 37.62% and 35.7%; Percent Inhibition (COX-2), single replicates (COX-2; 250, listed as Comp 2): 40.49% and 41.18% and 41.86%; Percent Inhibition (COX-2), single replicates (COX-2; 500, listed as Comp 2): 45.69% and 44.6% and 45.14%; Percent Inhibition (COX-2), single replicates (COX-2; 1000, listed as Comp 2): 50.07% and 54.17% and 54.72%; IC50 (COX-2; read-out: IC50): 2880 µM; IC50 (COX-2; read-out: IC50 (µg/ml) (converted)): 2880 µM
O=C(O)C=Cc1ccc(O)c(O)c1 [Compound 1, 3,4-dihydroxy-cinnamic acid] | 59.4 ± 0.65 | 66.9 ± 1.04 | 71.8 ± 0.55 | 77 ± 1.49 | 17.30 ± 0.77 | 28.48 ± 0.58 | 51.6 ± 1.2 | 62.5 ± 0.84 | 68.42 ± 0.64 | 72.8 | 4.43 and 5.1 and 6.1 | 6.87 and 5.78 and 7.3 | 6.2 and 4.27 and 5.81 | 5.1 and 5.99 and 6.59 | 4.1 and 4.82 and 5.34 | formalin induced pain, licking time, individual values (Swiss albino mice [1]; 0-5 minutes, listed as Comp 1): 16.3 and 17.41 and 18.2; formalin induced pain, licking time, individual values (Swiss albino mice [1]; 15-30 minutes, listed as Comp 1): 27.57 and 28.5 and 29.36; Total time spent in licking, % inhibition (0–5 min) (Swiss albino mice [1]; [3]): 69.45%; Total time spent in licking 0–5 min (Swiss albino mice [1]; first phase, compounds 50 mg/kg, Mor 5 mg/kg, Nal 1 mg/kg, listed as Comp 1): 17.3033 s; Total time spent in licking, % inhibition (15–30 min) (Swiss albino mice [1]; [4]): 63.97^*** %; Total time spent in licking 15–30 min (Swiss albino mice [1]; second phase, compounds 50 mg/kg, Mor 5 mg/kg, Nal 1 mg/kg, listed as Comp 1): 28.4767 s; % inhibition, COX-2 (mean ± SEM) (COX-2; 62.5 µg/ml, listed as Comp 1): 51.9833%; % inhibition, COX-2 (mean ± SEM) (COX-2; 250 µg/ml, listed as Comp 1): 62.5167%; % inhibition, COX-2 (mean ± SEM) (COX-2; 500 µg/ml, listed as Comp 1): 68.4433%; % inhibition, COX-2 (mean ± SEM) (COX-2; 1000 µg/ml): 72.63 ± 0.57 %; Percent Inhibition (COX-2), single replicates (COX-2; 62.5, listed as Comp 1): 51.85% and 51.98% and 52.12%; Percent Inhibition (COX-2), single replicates (COX-2; 125, listed as Comp 1): 58.82% and 58.96% and 58.41%; Percent Inhibition (COX-2), single replicates (COX-2; 250, listed as Comp 1): 62.79% and 63.2% and 61.56%; Percent Inhibition (COX-2), single replicates (COX-2; 500, listed as Comp 1): 68.4% and 67.99% and 68.94%; Percent Inhibition (COX-2), single replicates (COX-2; 1000, listed as Comp 1): 72.37% and 73.56% and 71.96%

Source: paper PMC10897015, “Investigation of anti-nociceptive, anti-inflammatory potential and ADMET studies of pure compounds isolated from Isodon rugosus Wall. ex Benth” (Frontiers in Pharmacology, 2024)
